According to the supplement of paper PMC11208160:
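Further: IS621 bridge recombinase in Escherichia coli cells against a fixed T5 target plasmid.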

Test: recombinant UMI read abundance after kanamycin selection (control-corrected) (log10(CPM+1)); higher = more efficient recombination; extreme values may be limits of the assay; sequences stand for … in AGTGCAGAGAAAATCGGCCAGTTTTCTCTGCCTGCAGTCCGCATGCCGTGGGACCCCTTGGGTTCTAACCTGTTGCCTAGATTTATGCAGCGGACTGCCTTTCTCCCAAAGTGATAAACCGG…AGGTTGGTTTCACT; site = the 11-nt donor
Description: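 Pooled E. coli donor-specificity screen for the IS621 bridge recombinase. Each library member carries a reprogrammed 11-nt donor and a full-length LE bridge RNA expressed in cis from the natural promoter, with a paired donor-binding loop (8-nt LDG + 4-nt RDG) and a target-binding loop fixed to T5. It is co-electroporated with a T5 target plasmid; recombinase is induced with 0.07 mM IPTG and recombinants are selected on kanamycin. UMIs are counted as CPM, averaged over two biological replicates and corrected by the unselected control. Molecule = full bridge RNA written as DNA, built from the T5 scaffold: LDG = donor specificity nt 1-8, RDG = reverse complement of nt 8-11.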
In the case of “AAAGTATCATGGACCGGTTTTCCCGGTAATCCGTATTTGCT (site ACAGTATCTTG)”, the “recombinant UMI read abundance (log10)” value was 0. With “AAAGTGTCATGGACCGGTTTTCCCGGTAATCCGTATTTGAC (site AAAGTGTCTGT)” the “recombinant UMI read abundance (log10)” value was 2.37. For “AAAGTGTCATGGACCGGTTTTCCCGGTAATCCGTATTTGAC (site AACGTGTCTGT)”, the “recombinant UMI read abundance (log10)” value was 0. In the case of “AAAGTGTCATGGACCGGTTTTCCCGGTAATCCGTATTTGAC (site AAGGTGTCTGT)”, the “recombinant UMI read abundance (log10)” value was 0. For “AAAGTGTCATGGACCGGTTTTCCCGGTAATCCGTATTTGAC (site AATGTGTCTGT)”, the “recombinant UMI read abundance (log10)” value was 0.497. In the case of “AAAGTTGCATGGACCGGTTTTCCCGGTAATCCGTATTTGAT (site AAAGTTGCTAT)”, the “recombinant UMI read abundance (log10)” value was 2.62. For “AAATCTACATGGACCGGTTTTCCCGGTAATCCGTATTTGTG (site AAATCTACTCA)”, the “recombinant UMI read abundance (log10)” value was 0.209. In the case of “AAATCTACATGGACCGGTTTTCCCGGTAATCCGTATTTGTG (site ACATCTACTCA)”, the “recombinant UMI read abundance (log10)” value was 0.0169. For “AAATCTACATGGACCGGTTTTCCCGGTAATCCGTATTTGTG (site AGATCTACTCA)”, the “recombinant UMI read abundance (log10)” value was 0.0155. With “AAATCTACATGGACCGGTTTTCCCGGTAATCCGTATTTGTG (site ATATCTACTCA)” the “recombinant UMI read abundance (log10)” value was 0.0108. For “AACAAGACATGGACCGGTTTTCCCGGTAATCCGTATTTGAC (site AACAAGACTGT)”, the “recombinant UMI read abundance (log10)” value was 2.21. With “AACAGTCCATGGACCGGTTTTCCCGGTAATCCGTATTTGAT (site AACAGTCCTAT)” the “recombinant UMI read abundance (log10)” value was 0.504. For “AACAGTCCATGGACCGGTTTTCCCGGTAATCCGTATTTGAT (site AACCGTCCTAT)”, the “recombinant UMI read abundance (log10)” value was 0.00935. With “AACAGTCCATGGACCGGTTTTCCCGGTAATCCGTATTTGAT (site AACGGTCCTAT)” the “recombinant UMI read abundance (log10)” value was 0.0119. In the case of “AACAGTCCATGGACCGGTTTTCCCGGTAATCCGTATTTGAT (site AACTGTCCTAT)”, the “recombinant UMI read abundance (log10)” value was 0. For “AACCAAACATGGACCGGTTTTCCCGGTAATCCGTATTTGAG (site AACCAAACTCT)”, the “recombinant UMI read abundance (log10)” value was 1.48. In the case of “AACCAAGCATGGACCGGTTTTCCCGGTAATCCGTATTTGAG (site AACCAAGCTCT)”, the “recombinant UMI read abundance (log10)” value was 1.8. In the case of “AACCAAGCATGGACCGGTTTTCCCGGTAATCCGTATTTGAG (site ACCCAAGCTCT)”, the “recombinant UMI read abundance (log10)” value was 0.33. For “AACCAAGCATGGACCGGTTTTCCCGGTAATCCGTATTTGAG (site AGCCAAGCTCT)”, the “recombinant UMI read abundance (log10)” value was 0.217. With “AACCAAGCATGGACCGGTTTTCCCGGTAATCCGTATTTGAG (site ATCCAAGCTCT)” the “recombinant UMI read abundance (log10)” value was 0.642. For “AACCACGCATGGACCGGTTTTCCCGGTAATCCGTATTTGGG (site AAACACGCTCC)”, the “recombinant UMI read abundance (log10)” value was 0.0131. With “AACCACGCATGGACCGGTTTTCCCGGTAATCCGTATTTGGG (site AACCACGCTCC)” the “recombinant UMI read abundance (log10)” value was 0.0319. In the case of “AACCACGCATGGACCGGTTTTCCCGGTAATCCGTATTTGGG (site AAGCACGCTCC)”, the “recombinant UMI read abundance (log10)” value was 0. For “AACCACGCATGGACCGGTTTTCCCGGTAATCCGTATTTGGG (site AATCACGCTCC)”, the “recombinant UMI read abundance (log10)” value was 0.00485. For “AACCGTACATGGACCGGTTTTCCCGGTAATCCGTATTTGAT (site AACCGTACTAT)”, the “recombinant UMI read abundance (log10)” value was 1. With “AACCGTACATGGACCGGTTTTCCCGGTAATCCGTATTTGAT (site AACCGTCCTAT)” the “recombinant UMI read abundance (log10)” value was 0.0158. For “AACCGTACATGGACCGGTTTTCCCGGTAATCCGTATTTGAT (site AACCGTGCTAT)”, the “recombinant UMI read abundance (log10)” value was 0.108. In the case of “AACCGTACATGGACCGGTTTTCCCGGTAATCCGTATTTGAT (site AACCGTTCTAT)”, the “recombinant UMI read abundance (log10)” value was 0. In the case of “AACCGTCCATGGACCGGTTTTCCCGGTAATCCGTATTTGAC (site AACCGTCCTAT)”, the “recombinant UMI read abundance (log10)” value was 0. For “AACCGTCCATGGACCGGTTTTCCCGGTAATCCGTATTTGAC (site AACCGTCCTCT)”, the “recombinant UMI read abundance (log10)” value was 0.0147. With “AACCGTCCATGGACCGGTTTTCCCGGTAATCCGTATTTGAC (site AACCGTCCTGT)” the “recombinant UMI read abundance (log10)” value was 0.786. For “AACCGTCCATGGACCGGTTTTCCCGGTAATCCGTATTTGAC (site AACCGTCCTTT)”, the “recombinant UMI read abundance (log10)” value was 0.477. With “AACCGTCCATGGACCGGTTTTCCCGGTAATCCGTATTTGAG (site AACCGTCCTAT)” the “recombinant UMI read abundance (log10)” value was 0.0112. For “AACCGTCCATGGACCGGTTTTCCCGGTAATCCGTATTTGAG (site AACCGTCCTCT)”, the “recombinant UMI read abundance (log10)” value was 0.0226. With “AACCGTCCATGGACCGGTTTTCCCGGTAATCCGTATTTGAG (site AACCGTCCTGT)” the “recombinant UMI read abundance (log10)” value was 0. With “AACCGTCCATGGACCGGTTTTCCCGGTAATCCGTATTTGAG (site AACCGTCCTTT)” the “recombinant UMI read abundance (log10)” value was 0.00366. With “AACCGTCCATGGACCGGTTTTCCCGGTAATCCGTATTTGAT (site AAACGTCCTAT)” the “recombinant UMI read abundance (log10)” value was 0.00674. With “AACCGTCCATGGACCGGTTTTCCCGGTAATCCGTATTTGAT (site AACAGTCCTAT)” the “recombinant UMI read abundance (log10)” value was 0.0027. In the case of “AACCGTCCATGGACCGGTTTTCCCGGTAATCCGTATTTGAT (site AACCATCCTAT)”, the “recombinant UMI read abundance (log10)” value was 0.62. In the case of “AACCGTCCATGGACCGGTTTTCCCGGTAATCCGTATTTGAT (site AACCCTCCTAT)”, the “recombinant UMI read abundance (log10)” value was 0.00675. With “AACCGTCCATGGACCGGTTTTCCCGGTAATCCGTATTTGAT (site AACCGACCTAT)” the “recombinant UMI read abundance (log10)” value was 0. For “AACCGTCCATGGACCGGTTTTCCCGGTAATCCGTATTTGAT (site AACCGCCCTAT)”, the “recombinant UMI read abundance (log10)” value was 0.00356. In the case of “AACCGTCCATGGACCGGTTTTCCCGGTAATCCGTATTTGAT (site AACCGGCCTAT)”, the “recombinant UMI read abundance (log10)” value was 0.00769. For “AACCGTCCATGGACCGGTTTTCCCGGTAATCCGTATTTGAT (site AACCGTACTAT)”, the “recombinant UMI read abundance (log10)” value was 0.0096. For “AACCGTCCATGGACCGGTTTTCCCGGTAATCCGTATTTGAT (site AACCGTCCTAA)”, the “recombinant UMI read abundance (log10)” value was 0.0165. In the case of “AACCGTCCATGGACCGGTTTTCCCGGTAATCCGTATTTGAT (site AACCGTCCTAC)”, the “recombinant UMI read abundance (log10)” value was 0.0101. For “AACCGTCCATGGACCGGTTTTCCCGGTAATCCGTATTTGAT (site AACCGTCCTAG)”, the “recombinant UMI read abundance (log10)” value was 0. For “AACCGTCCATGGACCGGTTTTCCCGGTAATCCGTATTTGAT (site AACCGTCCTAT)”, the “recombinant UMI read abundance (log10)” value was 0.252. In the case of “AACCGTCCATGGACCGGTTTTCCCGGTAATCCGTATTTGAT (site AACCGTCCTCT)”, the “recombinant UMI read abundance (log10)” value was 0.00582. For “AACCGTCCATGGACCGGTTTTCCCGGTAATCCGTATTTGAT (site AACCGTCCTGT)”, the “recombinant UMI read abundance (log10)” value was 0. With “AACCGTCCATGGACCGGTTTTCCCGGTAATCCGTATTTGAT (site AACCGTCCTTT)” the “recombinant UMI read abundance (log10)” value was 0.0201. For “AACCGTCCATGGACCGGTTTTCCCGGTAATCCGTATTTGAT (site AACCGTGCTAT)”, the “recombinant UMI read abundance (log10)” value was 0.0154. With “AACCGTCCATGGACCGGTTTTCCCGGTAATCCGTATTTGAT (site AACCGTTCTAT)” the “recombinant UMI read abundance (log10)” value was 0.00303. In the case of “AACCGTCCATGGACCGGTTTTCCCGGTAATCCGTATTTGAT (site AACCTTCCTAT)”, the “recombinant UMI read abundance (log10)” value was 0.0119. For “AACCGTCCATGGACCGGTTTTCCCGGTAATCCGTATTTGAT (site AACGGTCCTAT)”, the “recombinant UMI read abundance (log10)” value was 0.00654. In the case of “AACCGTCCATGGACCGGTTTTCCCGGTAATCCGTATTTGAT (site AACTGTCCTAT)”, the “recombinant UMI read abundance (log10)” value was 0.00892. In the case of “AACCGTCCATGGACCGGTTTTCCCGGTAATCCGTATTTGAT (site AAGCGTCCTAT)”, the “recombinant UMI read abundance (log10)” value was 0. For “AACCGTCCATGGACCGGTTTTCCCGGTAATCCGTATTTGAT (site AATCGTCCTAT)”, the “recombinant UMI read abundance (log10)” value was 0.0138. In the case of “AACCGTCCATGGACCGGTTTTCCCGGTAATCCGTATTTGAT (site ACCCGTCCTAT)”, the “recombinant UMI read abundance (log10)” value was 0. For “AACCGTCCATGGACCGGTTTTCCCGGTAATCCGTATTTGAT (site AGCCGTCCTAT)”, the “recombinant UMI read abundance (log10)” value was 0.0654. With “AACCGTCCATGGACCGGTTTTCCCGGTAATCCGTATTTGAT (site ATCCGTCCTAT)” the “recombinant UMI read abundance (log10)” value was 0.00558. With “AACCGTCCATGGACCGGTTTTCCCGGTAATCCGTATTTGAT (site CACCGTCCTAT)” the “recombinant UMI read abundance (log10)” value was 0.00991. For “AACCGTCCATGGACCGGTTTTCCCGGTAATCCGTATTTGAT (site GACCGTCCTAT)”, the “recombinant UMI read abundance (log10)” value was 0.00938. In the case of “AACCGTCCATGGACCGGTTTTCCCGGTAATCCGTATTTGAT (site TACCGTCCTAT)”, the “recombinant UMI read abundance (log10)” value was 0.0405. For “AACCGTGCATGGACCGGTTTTCCCGGTAATCCGTATTTGAT (site AACCGTACTAT)”, the “recombinant UMI read abundance (log10)” value was 0.902. In the case of “AACCGTGCATGGACCGGTTTTCCCGGTAATCCGTATTTGAT (site AACCGTCCTAT)”, the “recombinant UMI read abundance (log10)” value was 0.0261. For “AACCGTGCATGGACCGGTTTTCCCGGTAATCCGTATTTGAT (site AACCGTGCTAT)”, the “recombinant UMI read abundance (log10)” value was 1.37. For “AACCGTGCATGGACCGGTTTTCCCGGTAATCCGTATTTGAT (site AACCGTTCTAT)”, the “recombinant UMI read abundance (log10)” value was 0. For “AACCTAGCATGGACCGGTTTTCCCGGTAATCCGTATTTGTT (site AACCTAGCTAA)”, the “recombinant UMI read abundance (log10)” value was 0.0287. For “AACCTAGCATGGACCGGTTTTCCCGGTAATCCGTATTTGTT (site ACCCTAGCTAA)”, the “recombinant UMI read abundance (log10)” value was 0.542. In the case of “AACCTAGCATGGACCGGTTTTCCCGGTAATCCGTATTTGTT (site AGCCTAGCTAA)”, the “recombinant UMI read abundance (log10)” value was 0.024. For “AACCTAGCATGGACCGGTTTTCCCGGTAATCCGTATTTGTT (site ATCCTAGCTAA)”, the “recombinant UMI read abundance (log10)” value was 0.0182.
